Measurements reported in patent publication US9006246B2, “Tetrahydrocarboline derivative” (Ono Pharmaceutical Co., Ltd., priority 2010, dated 2015).

Target: human ENPP2 (Homo sapiens (Human), UniProt Q13822)
Experiment: Measurement of human ENPP2 inhibitory activity
Format: biochemical
Conditions: 1 μM test compound; 16:0-LPC substrate, 37° C., 24 hours; read-out: ENPP2 inhibition rate(%) (1 μM)
Method: 10 μL of a test compound solution (10% dimethyl sulfoxide) at each concentration and 40 μL of a 5 μg/mL human ENPP2 solution (buffer A: 100 mmol/L Tris-HCl (pH 9.0), 500 mmol/L NaCl, 5 mmol/L MgCl2, 0.05% Triton X-100) were mixed, 50 μL of a 2 mmol/L 16:0-lysophosphatidylcholine (LPC) solution (buffer A) was further added to react at 37° C. for 24 hours. Subsequently, to 10 μL of the reaction solution was added 90 μL of a measurement buffer (0.5 mmol/L aminoantipyrine, 0.3 mmol/L N-ethyl-N-(2-hydroxy-3-sulfopropyl)-3-methylaniline, 1 U/mL peroxidase, 3 U/mL choline oxidase, 100 mmol/L Tris-HCl (pH 8.5), 5 mmol/L CaCl2) to react at 37° C. for 20 minutes, and spectrophotometric determination was performed at 555 nm.
Using a standard curve, a choline production amount (enzyme activity) in each test compound was calculated, and the inhibitory activity rate of each test compound was calculated, wherein the enzyme activity in a positive control to which a test compound is not added, was a 0% inhibition rate, and the enzyme activity in a negative control to which a test compound and human ENPP2 are not added, were 100% inhibition. Further, concerning the present compounds shown in Table 3, an IC50 value was calculated from inhibitory activity rate at each concentration.

Structure (SMILES) | inhibition at 1 µM
O=C(CC12CCC(C(=O)O)(CC1)CC2)N1CCc2c(n(Cc3cc(F)cc(F)c3)c3ncccc23)C1 [Example 31(128), 4-{2-[9-(3,5-difluorobenzyl)-5,6,8,9-tetrahydro-7H-pyrido[4′,3′:4,5]pyrrolo[2,3-b]pyridin-7-yl]-2-oxoethyl}bicyclo[2.2.2]octane-1-carboxylic acid] | 99%
O=C(O)CCCC(=O)N1CCc2c(n(CCCc3ccccc3)c3ncccc23)C1 [Example 9(26), 5-oxo-5-[9-(3-phenylpropyl)-5,6,8,9-tetrahydro-7H-pyrido[4′,3′:4,5]pyrrolo[2,3-b]pyridin-7-yl]pentanoic acid] | 59.3%
O=C(O)CCCCC(=O)N1CCc2c(n(CCSc3ccccc3)c3ncccc23)C1 [Example 9(31), 6-oxo-6-{9-[2-(phenylthio)ethyl]-5,6,8,9-tetrahydro-7H-pyrido[4′,3′:4,5]pyrrolo[2,3-b]pyridin-7-yl}hexanoic acid] | 82.4%
CC(C)(CCCC(=O)N1CCc2c(n(Cc3ccccc3)c3ccccc23)C1)C(=O)O [Example 12(27), 6-(9-benzyl-1,3,4,9-tetrahydro-2H-beta-carbolin-2-yl)-2,2-dimethyl-6-oxohexanoic acid] | 91.9%

Now from value to molecule:

inhibition at 1 µM | Structure (SMILES)
98.6% | O=C(C[C@H]1CC[C@H](C(=O)O)CC1)N1CCc2c(n(Cc3ccc(Cl)cc3)c3ncccc23)C1 [Example 31(34), trans-4-{2-[9-(4-chlorobenzyl)-5,6,8,9-tetrahydro-7H-pyrido[4′,3′:4,5]pyrrolo[2,3-b]pyridin-7-yl]-2-oxoethyl}cyclohexanecarboxylic acid]
89.6% | CC(C)(OCC(=O)N1CCc2c(n(Cc3cccc(F)c3)c3ncccc23)C1)C(=O)O [Example 18(1), 2-{2-[9-(3-fluorobenzyl)-5,6,8,9-tetrahydro-7H-pyrido[4′,3′:4,5]pyrrolo[2,3-b]pyridin-7-yl]-2-oxoethoxy}-2-methylpropanoic acid]
98.9% | O=C(CC12CCC(C(=O)O)(CC1)C2)N1CCc2c(n(Cc3ccc(F)cc3F)c3ncccc23)C1 [Example 31(182), 4-{2-[9-(2,4-difluorobenzyl)-5,6,8,9-tetrahydro-7H-pyrido[4′,3′:4,5]pyrrolo[2,3-b]pyridin-7-yl]-2-oxoethyl}bicyclo[2.2.1]heptane-1-carboxylic acid]

Same assay, conditions: 16:0-LPC substrate, 37° C., 24 hours

IC50 | Structure (SMILES)
34 nM | O=C(O)CCCCC(=O)N1CCc2c(n(CCCc3ccccc3)c3ccccc23)C1 [Example 3, 6-oxo-6-[9-(3-phenylpropyl)-1,3,4,9-tetrahydro-2H-beta-carbolin-2-yl]hexanoic acid]
5 nM | O=C(C[C@H]1CC[C@H](C(=O)O)CC1)N1CCc2c(n(Cc3ccc(Cl)cc3F)c3ncccc23)C1 [Example 31(24), trans-4-{2-[9-(4-chloro-2-fluorobenzyl)-5,6,8,9-tetrahydro-7H-pyrido[4′,3′:4,5]pyrrolo[2,3-b]pyridin-7-yl]-2-oxoethyl}cyclohexanecarboxylic acid]
13 nM | CC1(C)[C@@H](CC(=O)N2CCc3c(n(Cc4ccc(F)c(Cl)c4)c4ncccc34)C2)CC[C@@]1(C)C(=O)O [Example 31(169), (1R,3R)-3-{2-[9-(3-chloro-4-fluorobenzyl)-5,6,8,9-tetrahydro-7H-pyrido[4′,3′:4,5]pyrrolo[2,3-b]pyridin-7-yl]-2-oxoethyl}-1,2,2-trimethylcyclopentanecarboxylic acid]
9.6 nM | CC(C)(CCCC(=O)N1CCc2c(n(Cc3ccc(Cl)s3)c3ncccc23)C1)C(=O)O [Example 12(42), 6-{9-[(5-chloro-2-thienyl)methyl]-5,6,8,9-tetrahydro-7H-pyrido[4′,3′:4,5]pyrrolo[2,3-b]pyridin-7-yl}-2,2-dimethyl-6-oxohexanoic acid]
7.8 nM | Cc1cc(CC(=O)N2CCc3c(n(Cc4csc(Cl)c4)c4ncccc34)C2)ccc1C(=O)O [Example 51(48), 4-(2-{9-[(5-chloro-3-thienyl)methyl]-5,6,8,9-tetrahydro-7H-pyrido[4′,3′:4,5]pyrrolo[2,3-b]pyridin-7-yl}-2-oxoethyl)-2-methylbenzoic acid]

Tested on: SD male rat
Experiment: Measurement of urethra internal pressure in rat under anesthesia
Format: in vivo
Conditions: rat under urethane anesthesia; intravenous 0.03, 0.1, 0.3 mg/kg; FIG. 2
Excerpt: A SD male rat (Crl: CD(SD), Charles River Laboratories Japan, Inc., 7-10 weeks old) was anesthetized by subcutaneous administration of 1.5 g/kg urethane at a back of a neck. After neck median incision, a jugular vein catheter for intravenous administration was inserted. A lower abdominal part was median incised, and a urethra was ligated at around pubis. A urethral catheter for measuring a urethra internal pressure, equipped with a collar at a tip and filled with a physiological saline was inserted into a urethra through an incised bladder top, and ligation-fixed at a bladder neck part. The urethral catheter was connected to a pressure transducer (manufactured by Nihon Kohden Corporation), and a urethra internal pressure was measured. […] A urethra internal pressure reduction rate (%) was calculated based on a urethra internal pressure after compound administration, wherein a value obtained by subtracting a postmortem baseline value (minimum value of urethra internal pressure for 10 minutes after administration of somnopentyl) from a urethra internal pressure value before compound administration (0 minute) was 100%.

Structure (SMILES) | urethra internal pressure
O=C(C[C@H]1CC[C@H](C(=O)O)CC1)N1CCc2c(n(Cc3ccc(Cl)cc3F)c3ncccc23)C1 [Example 31(24), trans-4-{2-[9-(4-chloro-2-fluorobenzyl)-5,6,8,9-tetrahydro-7H-pyrido[4′,3′:4,5]pyrrolo[2,3-b]pyridin-7-yl]-2-oxoethyl}cyclohexanecarboxylic acid] | significantly reduced a urethra internal pressure

Same assay, conditions: rat under urethane anesthesia; intravenous 0.1, 0.3, 1.0 mg/kg; FIG. 1

Structure (SMILES) | urethra internal pressure
O=C(O)CCCCC(=O)N1CCc2c(n(CCCc3ccccc3)c3ccccc23)C1 [Example 3, 6-oxo-6-[9-(3-phenylpropyl)-1,3,4,9-tetrahydro-2H-beta-carbolin-2-yl]hexanoic acid] | significantly reduced a urethra internal pressure
